From patent US10647708B2, “Tetrahydroisoquinoline derived PRMT5-inhibitors” (CTXT PTY LTD, priority 2014, dated 2020)

Experiments:
[1] = target: Full-length PRMT5 enzyme co-expressed with MEP50 (Homo sapiens (Human), UniProt O14744); assay: PRMT5 Biochemical Assay; details: 200 nM peptide substrate, 1 μM S-Adenosyl methionine, 4 hours at 37° C., Transcreener EPIGEN fluorescence polarisation
Description: Compounds of the invention may be tested for in vitro activity in the following assay: A histone H4 derived peptide is used as substrate (amino acid sequence: […]NH2). Full-length PRMT5 enzyme (NCBI Reference sequence NP_006100.2) was co-expressed with Hiss-MEP50 in insect cells and purified via Nickel immobilized metal affinity and gel filtration chromatography (“the enzyme”).
The […] assay reactions are run in Greiner brand black 384-well low volume plates. All reactions contained assay buffer (phosphate buffered saline, 0.01% (v/v) Tween-20, 0.01% (w/v) albumin from chicken egg white, 1 mM dithiothreitol, 200 nM peptide substrate, 1 μM S-Adenosyl methionine, and 15 ng/reaction enzyme, with the enzyme being omitted from negative control reactions. Compounds were added in a volume of 100 nL from dilution series prepared in DMSO, positive and negative control reactions receiving the same volume DMSO without compound. The plates were sealed with adhesive seals and incubated for 4 hours at 37° C. Reaction progress was measured using the Transcreener™ EPIGEN methyltransferase assay (BellBrook Labs, Madison, Wis.) as recommended by the manufacturer. To each reaction 2 μL detection mix were added, containing coupling enzymes, fluorescence polarisation tracer, and AMP antibody. […]

[2] = test system: symmetrical dimethylation of arginine (Histone H4R3) in cell line TE11; assay: PRMT5 Biomarker Assay (Di-Methyl Histone H4R3 ELISA); format: cell-based; details: Homo sapiens, TE-11; TE11 cells, 72 h incubation, EpiQuik Global Di-Methyl Histone H4R3 ELISA, corrected for total protein
Description: Compounds of the invention may be tested for potency to inhibit symmetrical […] of arginine in the following assay:
The cell line TE11 was seeded at a density of 12,000 cells per well in 96 well tissue culture plates in DME medium and 10% foetal bovine serum, and allowed to adhere overnight under standard culture conditions (37° C., 5% CO2). Compound dilutions prepared in DMSO were added to the medium, with negative control wells reserved for treatment with DMSO only and positive controls receiving a potent PRMT5 inhibitor. The concentration of the inhibitor had been previously determined to give maximum inhibition of the methylation. After incubation for 72 h, cells were washed twice in ice-cold PBS, lysed in lysis buffer (20 mM Tris pH 7.4, 135 mM NaCl, 1.5 mM MgCl2, 1 mM EGTA, 10% glycerol and 1% Triton-X100), centrifuged at 15,000×g and the supernatants collected for subsequent analysis. The methylation level was determined using the EpiQuik™ Global Di-Methyl Histone H4R3 Quantification ELISA Kit (Epigentek, Farmingdale, N.Y.) as per the manufacturer's recommendations; in parallel the total protein amount in the lysate was quantified using a Lowry protein assay. […]

[3] = test system: symmetrical dimethylation of arginine (Histone H4 Arginine 3) in cell line TE11; assay: Revised PRMT5 Biomarker Assay; format: cell-based; details: Homo sapiens, TE-11; TE11 cells, 72 hours incubation, anti-Di-Methyl Histone H4 Arginine 3 immunofluorescence, plate-reader based
Description: Compounds of the invention may be tested for potency to inhibit symmetrical dimethylation of arginine in the following assay:
The cell line TE11 was seeded at a density of 6,000 cells per well in 96 well optical quality tissue culture plates in DME medium and 10% foetal bovine serum, and allowed to adhere for 5 hours under standard culture conditions (37 degree Celsius, 5% CO2). Compound dilutions prepared in DMSO were added to the medium, with negative control wells reserved for treatment with DMSO only and positive controls receiving a potent PRMT5 inhibitor compound at 1 μM concentration. After incubation for 72 hours, the cells were fixed with 3.7% formaldehyde in PBS for 30 minutes at room temperature, washed with phosphate buffer saline and blocked with Odyssey blocking buffer (LI-COR, Lincoln, Nebr.). Rabbit anti-Di-Methyl Histone H4 Arginine 3 specific antibody (Epigentek) in Odyssey blocking buffer was added and incubated for 14 hours at 4 degree Celsius. After washing, anti-rabbit secondary antibody labelled with Alexa647 dye (LifeTechnologies) and Hoechst 33342 (1 μg/mL, SigmaAldrich) were added for 1 hour incubation. Plates were washed and read on a PerkinElmer Envision 2103 in fluorescence intensity scanning mode (24 scans across the well area). The methylation level information was corrected for the number of cells as expressed by the Hoechst 33342 stain, converted to percent inhibition relative to controls on the same plate and the data fitted against a four-parameter logistic model to determine the 50% inhibitory concentration (IC50 plate-reader based). Alternatively, the plates were imaged on a PerkinElmer Phenix high content imaging platform. Using a Columbus image analysis pipeline, individual nuclei were located by Hoechst 33342 stain and the methylation level was calculated from the Alexa647-related intensity in the same area. The resulting mean intensity per cell was directly converted to percent inhibition as outlined above (IC50, imager based)).

Full-length PRMT5 enzyme co-expressed with MEP50, sequence (O14744 whole entry): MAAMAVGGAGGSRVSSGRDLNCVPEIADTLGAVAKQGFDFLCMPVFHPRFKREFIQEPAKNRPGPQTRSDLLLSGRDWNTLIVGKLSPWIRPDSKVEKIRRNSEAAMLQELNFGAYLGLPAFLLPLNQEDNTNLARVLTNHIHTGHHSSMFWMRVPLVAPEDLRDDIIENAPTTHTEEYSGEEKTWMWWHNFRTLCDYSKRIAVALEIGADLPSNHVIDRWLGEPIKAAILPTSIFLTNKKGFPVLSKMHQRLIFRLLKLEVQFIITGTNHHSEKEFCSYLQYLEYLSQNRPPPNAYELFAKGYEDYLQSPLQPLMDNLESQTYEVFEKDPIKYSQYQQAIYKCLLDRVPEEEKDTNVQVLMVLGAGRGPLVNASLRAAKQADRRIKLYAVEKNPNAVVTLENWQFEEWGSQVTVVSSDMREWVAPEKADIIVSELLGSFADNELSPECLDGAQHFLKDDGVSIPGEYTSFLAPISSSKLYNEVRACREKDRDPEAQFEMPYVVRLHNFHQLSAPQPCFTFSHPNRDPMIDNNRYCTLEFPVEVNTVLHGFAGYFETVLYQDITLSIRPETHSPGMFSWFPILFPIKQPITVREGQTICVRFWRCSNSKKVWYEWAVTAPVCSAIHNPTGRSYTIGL
Full-length PRMT5 enzyme co-expressed with MEP50, sequence (Q9BQA1 whole entry partner): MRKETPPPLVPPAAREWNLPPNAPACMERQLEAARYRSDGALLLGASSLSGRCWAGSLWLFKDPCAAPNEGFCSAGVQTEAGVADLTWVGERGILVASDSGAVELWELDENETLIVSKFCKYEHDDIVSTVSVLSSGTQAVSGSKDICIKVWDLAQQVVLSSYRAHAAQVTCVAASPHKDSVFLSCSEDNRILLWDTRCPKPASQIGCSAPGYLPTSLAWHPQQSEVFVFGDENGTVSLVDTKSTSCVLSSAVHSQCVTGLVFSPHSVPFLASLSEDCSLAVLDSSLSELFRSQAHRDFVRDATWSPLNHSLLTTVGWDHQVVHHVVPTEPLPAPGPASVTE

IC50 [1]: 359 nM
IC50 [2]: 40.4 nM
IC50 [3]: 0.318 µM
Structure (SMILES): O=C(NCCC(O)CN1CCc2ccccc2C1)c1ccc(Cl)cc1 (stereo not drawn) [Compound 1, 4-Chloro-N-(4-(3,4-dihydroisoquinolin-2(1H)-yl)-3-hydroxybutyl)benzamide]
